Here are results for four compounds from paper PMC5773651, “Customised in vitro model to detect human metabolism-dependent idiosyncratic drug-induced liver injury” (Archives of Toxicology, 2017).

For data set [1], the system named is HepG2 cells co-transduced with AdCYP2E1 and AdGSTM1. Nature of the data set: HCS hepatotoxicity assay (MEC, TR), AdCYP2E1 + AdGSTM1 HepG2. It counts as cell-based, human. The following applies: CYP2E1-10X + GSTM1, 24 h. As for the experimental part: (§1) For subculturing purposes, cells were detached by treatment with 0.25% trypsin/0.02% EDTA at 37 °C. For the adenovirus infection studies, cells were seeded in 96-well plates (5000 cells/well) and adenovirus-containing medium was added 48 h later. After 24 h, cells were transferred to the adenovirus-free medium and cultured for an additional 24-h period prior to the incubations performed with the test chemicals. To optimise the expression of the functional enzymes in the adenovirus-transduced HepG2 (Ad-HepG2) cells, different doses (MOI, multiplicity of infection, defined as plaque formation units per cell) of each adenovirus were tested.
(§2) The drugs included in the study were chosen based on previous information about their hepatotoxicity. Information on the potential mechanisms implicated in the toxicity of each compound and the major enzymes involved in their metabolism is summarised in Table 1. HepG2 or Ad-HepG2 (48 h post-infection) cells were exposed for 24 h to eight concentrations of the tested compounds. Each experimental condition was repeated independently three times (with three wells measured each time). The stock solutions of compounds were prepared in DMSO and were conveniently diluted in the culture medium to obtain the desired final concentrations. The final DMSO concentration in the culture medium was 0.5% (v/v), and the control cultures were treated with the same amount of solvent.
(§3) Following treatments, cells were simultaneously loaded with several fluorescent dyes to measure multiple biomarkers of cell toxicity. […] Information about the probes is summarised in Supplementary Table S2.
(§4) After incubating with dyes, cells were imaged by the Scan^R system (Olympus, Germany). Dyes were excited, and their fluorescence was monitored at the excitation and emission wavelengths at appropriate filter settings. The collected images were analysed using the Scan^R analysis module, which allows the simultaneous quantification of subcellular structures that are stained by different fluorescent probes.

Data set [2] relates to HepG2 cells. Nature of the data set: Cell viability (PI), IC50, control HepG2 cells. It counts as cell-based. The following applies: Homo sapiens; control non-transduced HepG2; 24 h; unit inferred, tested range in µM; read-out: IC50 (cell viability), C.
Data set [3] has as its system HepG2 cells transduced with AdCYP2E1. Nature of the data set: Cell viability (PI), IC50, AdCYP2E1-HepG2. It counts as cell-based. The following applies: Homo sapiens, unit inferred, tested range in µM. The protocol:
as §1, §2, §3, §4

For data set [4] the test system is unchanged. The following applies: human, 24 h. The protocol:
as §1, §2, §3, §4

Data set [5] has as its system HepG2 cells. The following applies: human, 24 h. The protocol: as §1, §2, §3, §4
Data set [6] deals with HepG2 cells transduced with AdGSTM1. The following applies: human, 24 h. The protocol: as §1, §2, §3, §4
For data set [7] the following is noted: cited from earlier work; for Bioactivation / Enzyme: major enzyme(s) involved in the bioactivation (denoted as *) or detoxification of the drug: previous information; for Toxicity (mechanisms of toxicity): ref Ashrafian et al. [2007], Donato et al. [2009], Fromenty and Pessayre [1997], Rolo et al. [2000], Tolosa et al. [2012b]; for DILI category: ref Gustafsson et al. ([2014]).

Data set [8] concerns HepG2 cells co-transduced with AdCYP2E1, CYP1A2 and AdGSTM1. Description: HCS hepatotoxicity assay (MEC, TR), AdCYP2E1 + AdCYP1A2 + AdGSTM1 HepG2. It counts as cell-based, human. The following applies: 24 h; for MEC Apoptosis / MEC Calcium / MEC MMP / MEC Mitochondrial superoxide / MEC ROS: unit inferred, tested range in mM. The protocol: as §1, §2, §3, §4
In data set [9] the test system is HepG2 cells co-transduced with AdCYP2E1 and AdCYP1A2. Description: HCS hepatotoxicity assay (MEC, TR), AdCYP2E1 + AdCYP1A2 HepG2. It counts as cell-based, human. The note with it: 24 h; for MEC Apoptosis / MEC Calcium / MEC MMP / MEC Mitochondrial superoxide / MEC ROS: unit inferred, tested range in mM. The protocol:
as §1, §2, §3, §4

The subject of data set [10] is HepG2 cells transduced with AdCYP2B6. Nature of the data set: Cell viability (PI), IC50, AdCYP2B6-HepG2. It counts as cell-based. The note with it: Homo sapiens, unit inferred, tested range in µM. The protocol:
as §1, §2, §3, §4

Data set [11] has the same test system. Description: HCS hepatotoxicity assay (MEC, TR), AdCYP2B6-HepG2. It counts as cell-based, human. The following applies: 24 h, unit inferred, tested range in mM. The protocol: as §1
The drugs included in the study were chosen based on previous information about their hepatotoxicity. […] Each experimental condition was repeated independently three times (with three wells measured each time). […]
as §4

For data set [12] the following is noted: ref Atienzar et al. ([2014]), Garside et al. ([2014]), Tolosa et al. ([2012b]); cited from earlier work.
The subject of data set [13] is HepG2 cells transduced with AdCYP2C9. Description: Cell viability (PI), IC50, AdCYP2C9-HepG2. The note with it: Homo sapiens, unit inferred, tested range in µM. Type of data set: cell-based.
Data set [14] concerns Ad-HepG2 and HepG2 cells. Type of data set: cell-based, human. From the text: Finally, we explored the toxicity of the amoxycillin/clavulanate combination, one of the most commonly implicated agents in severe idiosyncratic liver injury. Unlike other studied drugs, the hepatotoxicity of amoxycillin/clavulanate has not been related to CYP metabolism.
[15] abbreviates: unit inferred, tested range in mM.
The mark [16] stands for this setting: unit not given, tested range in mM.
Where [17] appears, read: ADV CYP2E1 x1, 24 h, read-out: IC50 (cell viability), ADV dose x1.
The mark [18] stands for this setting: ADV CYP2E1 x4, 24 h, read-out: IC50 (cell viability), ADV dose x4.
The mark [19] stands for this setting: ADV CYP2E1 x10, 24 h, read-out: IC50 (cell viability), ADV dose x10.

As usually defined, the IC50 is the concentration that inhibits the measured activity by half. A word on the Cmax: it is the maximum level reached in the sampled fluid or tissue.

Read-outs that look alike come from different tables or passages of the source. Marks after values point to notes of the source that are not given here.

For `NNC(=O)c1ccncc1` [Isoniazid], in [1] (TR = 100 x Cmax/lowest MEC), the TR is listed as 0.38. Moreover, in data set [1] (setting [15]), the MEC Calcium came to 20 mM, the MEC Mitochondrial superoxide worked out at 30 mM and the MEC ROS was over 50 mM. Moreover, in data set [1] (setting [16]), the “MEC Apoptosis” value is given as 30 and the “MEC MMP” value is recorded as over 50. In addition, in [2], the IC50 stood at 61500 µM. Besides, the half-maximal inhibitory concentration (IC50) in data set [3] (setting [17]) was determined as 52900 µM. In addition, in data set [3] (setting [18]), the half-inhibitory concentration (IC50) was 44500 µM. Also, the IC50 in data set [3] (setting [19]) came to 46600 µM. Moreover, the “MEC MMP” value in data set [4] is reported as over 50. Moreover, in data set [5], the MEC Apoptosis was 30 µM, the “MEC Calcium” value is reported as 30, the “MEC MMP” value is given as over 50 and the “MEC Mitochondrial superoxide” value is on record as 30. In [5], the “MEC ROS” value is over 50 and the TR stood at 0.25. For the same compound, in data set [6], the MEC Apoptosis amounted to 30 µM, the “MEC Calcium” value is on record as over 50, the “MEC MMP” value is reported as over 50 and the “MEC Mitochondrial superoxide” value is recorded as over 50. Besides, in [6], the “MEC ROS” value is over 50 and the TR was found to be 0.25. In addition, in [7], the Bioactivation entry is recorded as “Yes”; the “Enzyme: major enzyme(s) involved in the bioactivation (denoted as *) or detoxification of the drug” value (“Enzyme: major enzyme(s) involved” for short) is “CYP2E1*, GSTM1, NAT2”; the “Toxicity (mechanisms of toxicity)” value is recorded as “MI, OS, AP”; the DILI category entry was “Severe”.

For `CC(=O)Nc1ccc(O)cc1` [Acetaminophen], the TR in data set [8] (CYP2E1-1X + CYP1A2-1X + GSTM1, TR = 100 x Cmax/lowest MEC) is 3.5; in data set [9] (CYP2E1-4X + CYP1A2-4X, TR = 100 x Cmax/lowest MEC), 27.8; in data set [5], 3.5; in data set [6] it was 3.5. Moreover, the MEC Apoptosis in [8] (CYP2E1-1X + CYP1A2-1X + GSTM1) was 4 mM; in data set [8] (CYP2E1-4X + CYP1A2-4X + GSTM1) it was 1 mM; in [9] (CYP2E1-1X + CYP1A2-1X) it was 1 mM; in [9] (CYP2E1-4X + CYP1A2-4X), 0.5 mM; in data set [5], 4 µM; in data set [6] it was 4 µM. For the same compound, the MEC Calcium was 15 mM in data set [8] (CYP2E1-1X + CYP1A2-1X + GSTM1); 6 mM in data set [8] (CYP2E1-4X + CYP1A2-4X + GSTM1); 6 mM in [9] (CYP2E1-1X + CYP1A2-1X); 0.5 mM in data set [9] (CYP2E1-4X + CYP1A2-4X); 6 in data set [5]; 10 in data set [6]. Further, the MEC MMP in data set [8] (CYP2E1-1X + CYP1A2-1X + GSTM1) is 15 mM; in [8] (CYP2E1-4X + CYP1A2-4X + GSTM1), 10 mM; in data set [9] (CYP2E1-1X + CYP1A2-1X), 10 mM; in data set [9] (CYP2E1-4X + CYP1A2-4X), 6 mM; in data set [5], 15; in data set [6], 15. The MEC Mitochondrial superoxide in data set [8] (CYP2E1-1X + CYP1A2-1X + GSTM1) amounted to 6 mM; in [8] (CYP2E1-4X + CYP1A2-4X + GSTM1), 4 mM; in data set [9] (CYP2E1-1X + CYP1A2-1X) it was 1 mM; in data set [9] (CYP2E1-4X + CYP1A2-4X), 0.5 mM; in data set [5] it was 4; in [6], 6. For the same compound, the MEC ROS in [8] (CYP2E1-1X + CYP1A2-1X + GSTM1) stood at 15 mM; in [8] (CYP2E1-4X + CYP1A2-4X + GSTM1), 6 mM; in [9] (CYP2E1-1X + CYP1A2-1X), 6 mM; in data set [9] (CYP2E1-4X + CYP1A2-4X) it was 0.5 mM; in [5] it was 10; in data set [6], 15. The concentration for half-maximal inhibition (IC50) in [2] is over 15000 µM; in data set [3] (setting [17]), over 15000 µM; in [3] (setting [18]) it was over 15000 µM; in data set [3] (setting [19]), 10600 µM. Moreover, the “concentration that induced significant changes in the ROS generation and calcium levels” value in data set [9] (cells co-transduced with AdCYP2E1 and AdCYP1A2, intermediate doses of adenoviruses) was 500 µM. Besides, the “concentrations needed to significantly alter ROS generation and calcium levels” value in [4] was in the range of 4000 to 6000 µM. Moreover, the Bioactivation entry in data set [7] is given as “Yes”. Moreover, the “Enzyme: major enzyme(s) involved” value in data set [7] was “CYP2E1* (CYP1A2*, CYP3A4*) GST”. For the same compound, in data set [7], the “Toxicity (mechanisms of toxicity)” value was “OS, AP”. The DILI category entry in data set [7] is reported as “DILI reports”.

Regarding `CCCC(CCC)C(=O)O` [Valproic acid], the concentration for half-maximal inhibition (IC50) turned out to be 13300 µM in data set [10] (ADV CYP2B6 x1, 24 h, read-out: IC50 (cell viability), ADV dose x1); 8600 µM in [10] (ADV CYP2B6 x4, 24 h, read-out: IC50 (cell viability), ADV dose x4); 8700 µM in data set [10] (ADV CYP2B6 x10, 24 h, read-out: IC50 (cell viability), ADV dose x10); 14800 µM in data set [2]; 14400 µM in data set [13] (ADV CYP2C99 x1, 24 h, read-out: IC50 (cell viability), ADV dose x1); 16000 µM in [13] (ADV CYP2C99 x4, 24 h, read-out: IC50 (cell viability), ADV dose x4). In [13] (ADV CYP2C99 x10, 24 h, read-out: IC50 (cell viability), ADV dose x10), the IC50 is 10100 µM. Also, the MEC ROS came to 10 mM in data set [11] (CYP2B6-4X) and 8 mM in [11] (CYP2B6-10X). The “MEC Lipids” value in [5] is given as 6. Also, the Bioactivation entry in [7] is recorded as “Yes”. Further, the “Enzyme: major enzyme(s) involved” value in [7] is on record as “CYP2B6*, CYP2C9* (CYP2E1*, CYP2A6*)”. For the same compound, the “Toxicity (mechanisms of toxicity)” value in [7] was “MI, OS, ST”. For the same compound, in data set [12], the peak concentration (Cmax) was 166 µM.

Amoxicillin/clavulanate: in [14], the ROS production entry is “significant increase”.
